Measured values taken from patent US9113629B2, “4-amino-6-(4-substituted-phenyl)-picolinates and 6-amino-2-(4-substituted-phenyl)-pyrimidine-4-carboxylates and their use as herbicides” (DOW AGROSCIENCES LLC, priority 2013, dated 2015).

system: not given; test: not given; conditions: not given

melting point [°C]	SMILES
138 to 140	COC(=O)c1nc(-c2ccc(I)c(F)c2)c(F)c(N)c1Cl [Compound 132]

system: Key Broadleaf Weed and Crop Species; test: Post-emergent Test II herbicidal activity (Table 5); assay type: in vivo; conditions: post-emergence, 336 h; ABUTH: velvetleaf (Abutilon theophrasti); application rate 70 g ai/ha; 14 days after application; read-out: Visual Growth Reduction (%) 14 Days After Application, ABUTH
How it was run: (§1)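 Injury was rated visually 14 d after treatment on a 0–100% scale against untreated controls. Test compounds, formulated with crop oil concentrate and surfactant and serially diluted down to 1/16× of the top rate, were applied by track sprayer at 187 L/ha onto first- to second-true-leaf seedlings.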

SMILES	pest or weed control at 70 g/ha [%]
COC(=O)c1nc(-c2ccc(I)c(F)c2)c(F)c(N)c1Cl [Compound 132]	95 to 100

same assay, conditions: post-emergence, 336 h; ABUTH: velvetleaf (Abutilon theophrasti); application rate 140 g ai/ha; 14 days after application; read-out: Visual Growth Reduction (%) 14 Days After Application, ABUTH

SMILES	pest or weed control at 140 g/ha [%]
COC(=O)c1nc(-c2ccc(I)c(F)c2)c(F)c(N)c1Cl [Compound 132]	95 to 100

same assay, conditions: post-emergence, 336 h; AMARE: redroot pigweed (Amaranthus retroflexus); application rate 70 g ai/ha; 14 days after application; read-out: Visual Growth Reduction (%) 14 Days After Application, AMARE

SMILES	pest or weed control at 70 g/ha [%]
COC(=O)c1nc(-c2ccc(I)c(F)c2)c(F)c(N)c1Cl [Compound 132]	95 to 100

same assay, conditions: post-emergence, 336 h; AMARE: redroot pigweed (Amaranthus retroflexus); application rate 140 g ai/ha; 14 days after application; read-out: Visual Growth Reduction (%) 14 Days After Application, AMARE

SMILES	pest or weed control at 140 g/ha [%]
COC(=O)c1nc(-c2ccc(I)c(F)c2)c(F)c(N)c1Cl [Compound 132]	95 to 100

same assay, conditions: post-emergence, 336 h; BRSNN: oilseed-rape, canola (Brassica napus); application rate 70 g ai/ha; 14 days after application; read-out: Visual Growth Reduction (%) 14 Days After Application, BRSNN

SMILES	pest or weed control at 70 g/ha [%]
COC(=O)c1nc(-c2ccc(I)c(F)c2)c(F)c(N)c1Cl [Compound 132]	95 to 100

same assay, conditions: post-emergence, 336 h; BRSNN: oilseed-rape, canola (Brassica napus); application rate 140 g ai/ha; 14 days after application; read-out: Visual Growth Reduction (%) 14 Days After Application, BRSNN

SMILES	pest or weed control at 140 g/ha [%]
COC(=O)c1nc(-c2ccc(I)c(F)c2)c(F)c(N)c1Cl [Compound 132]	95 to 100

same assay, conditions: post-emergence, 336 h; CHEAL: lambsquarters (Chenopodium album); application rate 70 g ai/ha; 14 days after application; read-out: Visual Growth Reduction (%) 14 Days After Application, CHEAL

SMILES	pest or weed control at 70 g/ha [%]
COC(=O)c1nc(-c2ccc(I)c(F)c2)c(F)c(N)c1Cl [Compound 132]	95 to 100

same assay, conditions: post-emergence, 336 h; CHEAL: lambsquarters (Chenopodium album); application rate 140 g ai/ha; 14 days after application; read-out: Visual Growth Reduction (%) 14 Days After Application, CHEAL

SMILES	pest or weed control at 140 g/ha [%]
COC(=O)c1nc(-c2ccc(I)c(F)c2)c(F)c(N)c1Cl [Compound 132]	95 to 100

same assay, conditions: post-emergence, 336 h; EPHHL: wild poinsettia (Euphorbia heterophylla); application rate 70 g ai/ha; 14 days after application; read-out: Visual Growth Reduction (%) 14 Days After Application, EPHHL

SMILES	pest or weed control at 70 g/ha [%]
COC(=O)c1nc(-c2ccc(I)c(F)c2)c(F)c(N)c1Cl [Compound 132]	95 to 100

same assay, conditions: post-emergence, 336 h; EPHHL: wild poinsettia (Euphorbia heterophylla); application rate 140 g ai/ha; 14 days after application; read-out: Visual Growth Reduction (%) 14 Days After Application, EPHHL

SMILES	pest or weed control at 140 g/ha [%]
COC(=O)c1nc(-c2ccc(I)c(F)c2)c(F)c(N)c1Cl [Compound 132]	95 to 100

same assay, conditions: post-emergence, 336 h; HELAN: sunflower (Helianthus annuus); application rate 70 g ai/ha; 14 days after application; read-out: Visual Growth Reduction (%) 14 Days After Application, HELAN

SMILES	pest or weed control at 70 g/ha [%]
COC(=O)c1nc(-c2ccc(I)c(F)c2)c(F)c(N)c1Cl [Compound 132]	95 to 100

same assay, conditions: post-emergence, 336 h; HELAN: sunflower (Helianthus annuus); application rate 140 g ai/ha; 14 days after application; read-out: Visual Growth Reduction (%) 14 Days After Application, HELAN

SMILES	pest or weed control at 140 g/ha [%]
COC(=O)c1nc(-c2ccc(I)c(F)c2)c(F)c(N)c1Cl [Compound 132]	95 to 100

same assay, conditions: post-emergence, 336 h; VIOTR: wild pansy (Viola tricolor); application rate 70 g ai/ha; 14 days after application; read-out: Visual Growth Reduction (%) 14 Days After Application, VIOTR

SMILES	pest or weed control at 70 g/ha [%]
COC(=O)c1nc(-c2ccc(I)c(F)c2)c(F)c(N)c1Cl [Compound 132]	95 to 100

same assay, conditions: post-emergence, 336 h; VIOTR: wild pansy (Viola tricolor); application rate 140 g ai/ha; 14 days after application; read-out: Visual Growth Reduction (%) 14 Days After Application, VIOTR

SMILES	pest or weed control at 140 g/ha [%]
COC(=O)c1nc(-c2ccc(I)c(F)c2)c(F)c(N)c1Cl [Compound 132]	95 to 100

system: Key Grass and Sedge Weeds as well as Grass Crops; test: Post-emergent Test II herbicidal activity (Table 6); assay type: in vivo; conditions: post-emergence, 336 h, CYPES: yellow nutsedge (Cyperus esculentus), 70 g ai/ha, read-out: Visual Growth Reduction (%) 14 Days After Application, CYPES
How it was run: as §1

SMILES	pest or weed control at 70 g/ha [%]
COC(=O)c1nc(-c2ccc(I)c(F)c2)c(F)c(N)c1Cl [Compound 132]	45 to 59

same assay, conditions: post-emergence, 336 h, CYPES: yellow nutsedge (Cyperus esculentus), 140 g ai/ha, read-out: Visual Growth Reduction (%) 14 Days After Application, CYPES

SMILES	pest or weed control at 140 g/ha [%]
COC(=O)c1nc(-c2ccc(I)c(F)c2)c(F)c(N)c1Cl [Compound 132]	85 to 94

same assay, conditions: post-emergence, 336 h, DIGSA: crabgrass (Digitaria sanguinalis), 70 g ai/ha, read-out: Visual Growth Reduction (%) 14 Days After Application, DIGSA

SMILES	pest or weed control at 70 g/ha [%]
COC(=O)c1nc(-c2ccc(I)c(F)c2)c(F)c(N)c1Cl [Compound 132]	85 to 94

same assay, conditions: post-emergence, 336 h, DIGSA: crabgrass (Digitaria sanguinalis), 140 g ai/ha, read-out: Visual Growth Reduction (%) 14 Days After Application, DIGSA

SMILES	pest or weed control at 140 g/ha [%]
COC(=O)c1nc(-c2ccc(I)c(F)c2)c(F)c(N)c1Cl [Compound 132]	85 to 94

same assay, conditions: post-emergence, 336 h, ECHCG: barnyardgrass (Echinochloa crus-galli), 70 g ai/ha, read-out: Visual Growth Reduction (%) 14 Days After Application, ECHCG

SMILES	pest or weed control at 70 g/ha [%]
COC(=O)c1nc(-c2ccc(I)c(F)c2)c(F)c(N)c1Cl [Compound 132]	85 to 94

same assay, conditions: post-emergence, 336 h, ECHCG: barnyardgrass (Echinochloa crus-galli), 140 g ai/ha, read-out: Visual Growth Reduction (%) 14 Days After Application, ECHCG

SMILES	pest or weed control at 140 g/ha [%]
COC(=O)c1nc(-c2ccc(I)c(F)c2)c(F)c(N)c1Cl [Compound 132]	75 to 84

same assay, conditions: post-emergence, 336 h, ORYSA: rice (Oryza sativa), crop, 70 g ai/ha, read-out: Visual Growth Reduction (%) 14 Days After Application, ORYSA

SMILES	pest or weed control at 70 g/ha [%]
COC(=O)c1nc(-c2ccc(I)c(F)c2)c(F)c(N)c1Cl [Compound 132]	0 to 29

same assay, conditions: post-emergence, 336 h, ORYSA: rice (Oryza sativa), crop, 140 g ai/ha, read-out: Visual Growth Reduction (%) 14 Days After Application, ORYSA

SMILES	pest or weed control at 140 g/ha [%]
COC(=O)c1nc(-c2ccc(I)c(F)c2)c(F)c(N)c1Cl [Compound 132]	0 to 29

same assay, conditions: post-emergence, 336 h, SETFA: giant foxtail (Setaria faberi), 70 g ai/ha, read-out: Visual Growth Reduction (%) 14 Days After Application, SETFA

SMILES	pest or weed control at 70 g/ha [%]
COC(=O)c1nc(-c2ccc(I)c(F)c2)c(F)c(N)c1Cl [Compound 132]	0 to 29

same assay, conditions: post-emergence, 336 h, SETFA: giant foxtail (Setaria faberi), 140 g ai/ha, read-out: Visual Growth Reduction (%) 14 Days After Application, SETFA

SMILES	pest or weed control at 140 g/ha [%]
COC(=O)c1nc(-c2ccc(I)c(F)c2)c(F)c(N)c1Cl [Compound 132]	60 to 74

same assay, conditions: post-emergence, 336 h, SORVU: grain sorghum (Sorghum vulgare), 70 g ai/ha, read-out: Visual Growth Reduction (%) 14 Days After Application, SORVU

SMILES	pest or weed control at 70 g/ha [%]
COC(=O)c1nc(-c2ccc(I)c(F)c2)c(F)c(N)c1Cl [Compound 132]	85 to 94

same assay, conditions: post-emergence, 336 h, SORVU: grain sorghum (Sorghum vulgare), 140 g ai/ha, read-out: Visual Growth Reduction (%) 14 Days After Application, SORVU

SMILES	pest or weed control at 140 g/ha [%]
COC(=O)c1nc(-c2ccc(I)c(F)c2)c(F)c(N)c1Cl [Compound 132]	95 to 100

same assay, conditions: post-emergence, 336 h, TRZSS (wheat, Triticum aestivum), crop, 70 g ai/ha, read-out: Visual Growth Reduction (%) 14 Days After Application, TRZSS

SMILES	pest or weed control at 70 g/ha [%]
COC(=O)c1nc(-c2ccc(I)c(F)c2)c(F)c(N)c1Cl [Compound 132]	0 to 29

same assay, conditions: post-emergence, 336 h, TRZSS (wheat, Triticum aestivum), crop, 140 g ai/ha, read-out: Visual Growth Reduction (%) 14 Days After Application, TRZSS

SMILES	pest or weed control at 140 g/ha [%]
COC(=O)c1nc(-c2ccc(I)c(F)c2)c(F)c(N)c1Cl [Compound 132]	30 to 44

same assay, conditions: post-emergence, 336 h, ZEAMX: maize, corn (Zea mays), crop, 70 g ai/ha, read-out: Visual Growth Reduction (%) 14 Days After Application, ZEAMX

SMILES	pest or weed control at 70 g/ha [%]
COC(=O)c1nc(-c2ccc(I)c(F)c2)c(F)c(N)c1Cl [Compound 132]	95 to 100

same assay, conditions: post-emergence, 336 h, ZEAMX: maize, corn (Zea mays), crop, 140 g ai/ha, read-out: Visual Growth Reduction (%) 14 Days After Application, ZEAMX

SMILES	pest or weed control at 140 g/ha [%]
COC(=O)c1nc(-c2ccc(I)c(F)c2)c(F)c(N)c1Cl [Compound 132]	95 to 100
